Measured values from patent US20060217360A1, “Tubulysin biosynthesis gene” (priority 2002, published 2006).
≈ marks a conversion by molar mass, not a printed value.

Key:
Assay type in all cases: cell-based
[1] = test system: Aspergillus niger; assay: Agar diffusion test, spectrum of action on fungi; conditions: 20 μg per test disc of 6 mm diameter
[2] = test system: Botrytis cineria; assay: Agar diffusion test, spectrum of action on fungi; conditions: 20 μg per test disc of 6 mm diameter
[3] = test system: Coprinus cinereus; assay: Agar diffusion test, spectrum of action on fungi; conditions: 20 μg per test disc of 6 mm diameter
[4] = test system: Pythinum debaryanum; assay: Agar diffusion test, spectrum of action on fungi; conditions: 20 μg per test disc of 6 mm diameter
[5] = test system: KB-3-1 (DSM ACC 158); assay: Cytostatic action on human cancer cell line; conditions: KB-3-1 human cancer cell line
[6] = test system: K-562 (ATCC CCL 243); assay: Cytostatic action on human cancer cell line; conditions: K-562 human cancer cell line
[7] = test system: HL-60 (ATCC-CCL 240); assay: Cytostatic action on human cancer cell line; conditions: HL-60 human cancer cell line
[8] = test system: L929, mouse (ATCC CCL1); assay: Cytostatic action on animal cell line
[9] = test system: Pt K2, Potorous tridactylis (ATCC CCL 56); assay: Cytostatic action on animal cell line

Structure (SMILES) | Inhibition zone [1] [mm] | Inhibition zone [2] [mm] | Inhibition zone [3] [mm] | Inhibition zone [4] [mm] | IC50 [5] [ng/mL] | IC50 [6] [ng/mL] | IC50 [7] [ng/mL] | IC50 [8] [ng/mL] | IC50 [9] [ng/mL]
CC[C@H](C)[C@H](NC(=O)[C@H]1CCCCN1C)C(=O)N(COC(=O)CC(C)C)[C@H](C[C@@H](OC(C)=O)c1nc(C(=O)N[C@@H](Cc2ccc(O)cc2)C[C@H](C)C(=O)O)cs1)C(C)C [Tubulysin A] | 20 | 23 | 20 | 20 | 0.01 (≈ 0.0118 nM) | 0.1 (≈ 0.118 nM) | 0.04 (≈ 0.0474 nM) | 0.2 (≈ 0.237 nM) | 0.2 (≈ 0.237 nM)
CCCC(=O)OCN(C(=O)[C@@H](NC(=O)[C@H]1CCCCN1C)[C@@H](C)CC)[C@H](C[C@@H](OC(C)=O)c1nc(C(=O)N[C@@H](Cc2ccc(O)cc2)C[C@H](C)C(=O)O)cs1)C(C)C [Tubulysin B] | 18 | 18 | – | – | 0.02 (≈ 0.0241 nM) | 0.2 (≈ 0.241 nM) | 0.08 (≈ 0.0964 nM) | 0.4 (≈ 0.482 nM) | 0.2 (≈ 0.241 nM)
CCC(=O)OCN(C(=O)[C@@H](NC(=O)[C@H]1CCCCN1C)[C@@H](C)CC)[C@H](C[C@@H](OC(C)=O)c1nc(C(=O)N[C@@H](Cc2ccc(O)cc2)C[C@H](C)C(=O)O)cs1)C(C)C [Tubulysin C] | – | – | – | – | 0.1 (≈ 0.123 nM) | 1.5 (≈ 1.84 nM) | 0.4 (≈ 0.49 nM) | 2 (≈ 2.45 nM) | 2 (≈ 2.45 nM)
